Experimental findings from US5763470A, “Benzopyran compounds and methods for their use” (Sugen Inc., priority 1995, dated 1998) are described below.

What all share (assay type): cell-based
One assay deals with NIH3T3/IGF-1R cells. Kind of assay: IGF-I Receptor Growth Assay, 3T3 IGF-1R cells. As to conditions: Mus musculus, 0.5% FBS, 10 nM IGF-1, read-out: Cell Growth Assays, 3T3 IGF-1R 0.5% FBS. How it is done: Assay 2: IGF-I Receptor Growth Assay
Materials And Methods. The following materials were used to conduct the IGF-I receptor growth assay:
(§1) a. The NIH3T3/IGF-1R (10% FBS/2 mM glutamine/DMEM) and NIH3T3 c7 (10% calf serum/2 mM glutamine/DMEM) cell lines were used wherein the NIH3T3 cells (and cells derived from them) were handled such that they were not allowed to become confluent, thus decreasing the likelihood of spontaneous transformation.
Using the above described materials, the following steps were performed under aseptic conditions until fixing the cells for the SRB assay:
(§2) Day 0: Cell Plating--Trypsinize and count NIH3T3/IGF-1R and NIH3T3 c7 cells. Dilute in growth media to 2000 cells/200 μl and seed flat bottom 96-well plates with 200 μl/well, one plate for two compounds for each cell line.
Day 1: Compound Preparation--Add DMSO to each compound to make 100 mM stock solutions.
NIH3T31IGF-1R cells--For each 96-well plate, make 15 ml of 10 nM IGF-1/0.5% FBS/2 mM glutamine/DMEM (30 μl of 5 μM IGF-1/15 ml).
Add 3 μl of 100 mM stock of each compound to a tube so 200 μM final. Shake or vortex until it goes into solution. If it is necessary to add additional medium, note the final concentration.
Do 2-fold dilutions (130 μl) from columns 12 to 3 on each plate (column 2 will be for the untreated control), mixing thoroughly. […]

The next assay has as its system NIH3T3 c7 cells. Kind of assay: Cell growth assay, 3T3 control cells (beside 3T3 IGF-1R). As to conditions: Mus musculus, 10% FBS, column beside 3T3 IGF-1R, read-out: Cell Growth Assays, 3T3 10% FBS. Here is the method:
as §1, §2
Day 4: Refeed--Repeat steps above, adding exactly the same IGF-1 and compound concentration to each well as before.
Using wells in column 2 (treated with IGF-1 but not compound) as 100%, calculate percent of control for each concentration of compound.
Use a curve fit method to graph percent of control vs. log(molar concentration) and determine the IC50.

For assay [1], the system named is HER2C7 cells (NIH3T3 engineered to express HER2). Kind of assay: 3T3/HER2 Cell Growth Assay, 3T3 HER-2 cells. As to conditions: Mus musculus, NIH3T3, 96 h; 2% FBS; 4 days; read-out: Cell Growth Assays, 3T3 HER-2 2% FBS. How it is done:
(§3) The NIH3T3 growth assay, using cell lines capable of expressing HER2, was carried out as follows:
(§4) m. NIH3T3C7 cells in 10% CS+2 mM glutamine DMEM HER2C7 cells in 2% FBS+2 mM glutamine DMEM
(§5) 1. HER2C7 (engineered to express HER2) and NIH3T3C7 (as the control) cells are used for this assay. NIH3T3C7 cells are seeded at 2500 cells/well, […] in 10% CS+2 mM glutamine DMEM, in a 96 well plate; HER2C7 cells are seeded at 6000 cells/well, 100 μl/well in 2% FBS+2 mM glutamine DMEM, in a 96 well plate. Cells are incubated at 37° C., 5% CO2 overnight to allow for cell attachment to the plate;
(§6) 2. The TBST compound is added to the cells at day 2. The compounds are prepared in the appropriate growth medium (10% CS+2 mM) glutamine DMEM for NIH3T3C7 cells; 2% FBS+2 mM glutamine DMEM for HER2C7 cells) in a 96 well plate, and serially diluted. A total of 100 μl/well medium of the diluted compounds is added into the cells. The total volume of each well is 200 μl. Quadruplicates (wells) and 11 concentration points are applied to each compound tested.
(§7) 3. After the cells are treated with the compound for 4 days, the cells are washed with PBS and fixed with 200 μl/well ice-cold 10% TCA for one hour at 0-5° C. condition.
(§8) 4. Remove TCA and rinse wells […] with deionized water. Dry plates upside down with paper towels. […]
7. Read the plate at dual wavelengths at 570 nm and 630 nm on Dynatech Elisa plate reader. […]

For another assay, the system named is NIH3T3C7 cells. Kind of assay: 3T3/HER2 Cell Growth Assay, 3T3 control cells (beside 3T3 HER-2). Particulars: 96 h; 10% FBS; column beside 3T3 HER-2; 4 days; read-out: Cell Growth Assays, 3T3 10% FBS. Here is the method: as §3, §4, §5, §6, §7, §8
7. Read the plate at dual wavelengths at 570 nm and 630 nm on Dynatech Elisa plate reader.

The subject of assay [2] is MCF7 cells overexpressing HER2 kinase (MCF7-HER2). Kind of assay: MCF-7/HER-2 SRB Growth Assay. As to conditions: Homo sapiens, MCF7, 96 h; 0.5% FBS; 4 days; read-out: Cell Growth Assays, MCF7 Her-2 0.5% FBS.
A further assay relates to MCF7 cells. Put plainly: MCF-7 SRB Growth Assay. Particulars: Homo sapiens, MCF7, 96 h; 10% FBS; 4 days; read-out: Cell Growth Assays, MCF7 10% FBS. Here is the method: Assay 1: MCF-7 RB Growth Assay. MCF-7 cells are seeded at 2000 cells/well in a 96-well flat bottom plate in normal growth media, which was 10% FBS/RPMI supplemented with 2 mM Glutamine. The plate of cells is incubated for about 24 hours at 37° C. after which it receives an equal volume of compound dilution per well making the total volume per well 200 μl. The compound is prepared at 2 times the desired highest final concentration and serially diluted in the normal growth media in a 96-well round bottom plate and then transferred to plate of cells. DMSO serves as the vector control up to 0.2% as final concentration. The cells are then incubated at 37° C. in a humidified 5% CO2 incubator. Four days following dosing of compound, the media is 15 discarded and 200 μl/well of ice-cold 10% TCA (Trichloroacetic Acid) is added to fix cells. After 60 minutes at 4° C., the TCA is discarded and the plate is rinsed 5 times with water. The plate is then air-dried and 100 μl/well of 0.4% SRB (Sulforhodamine B from Sigma) 20 in 1% Acetic Acid is added to stain cells for 10 minutes at room temperature. The SRB is discarded and the plate is rinsed 5 times with 1% Acetic Acid. After the plate is completely dried, 100 μl/well of 10 mM Tris-base is added to solubilize the dye. After 5 to 10 minutes, the plate is read on a Dynatech ELISA Plate Reader at dual wavelengths at 570 nm and 630 nm. […]

For the molecule `COc1cccc2c1OC(c1ccc(F)cc1)C([N+](=O)[O-])=C2` (stereo not drawn) [Compound A, 2-(4-Fluorophenyl)-8-methoxy-3-nitro-1,2-benzopyran], the IC50 came out at 2500 nM with NIH3T3/IGF-1R cells; 5600 nM in the assay on NIH3T3 c7 cells; 1800 nM in assay [1]; 70000 nM in the assay on NIH3T3C7 cells; 800 nM in assay [2]; 2000 nM in the assay on MCF7 cells.
